Assay results reported in patent publication US20160215348A1, “GENE EXPRESSION BIOMARKERS AND THEIR USE FOR DIAGNOSTIC AND PROGNOSTIC APPLICATION IN PATIENTS POTENTIALLY IN NEED OF HDAC INHIBITOR TREATMENT” (4SC AG, priority 2013, published 2016).

Experiments:
ZFP64 = ZFP64 gene expression in diverse cancer cell lines (FIG. 4c); format: cell-based; conditions: 10 μM; 0, 2, 5 and 24 hours
Excerpt: To determine RNA expression levels of ZFP64 in different cancer cell lines and PBMC, the cell membranes were chemically disrupted with a buffer containing guanidine isothiocycanate, which lyses the cells and supports the binding of RNA to a silica membrane and RNA was extracted via a filter-based spin column.

Histone H3 = test: Nuclear protein extraction and Western blot, HepG2 cells (nuclear loading control); format: cell-based, human; conditions: 5 μM, 24 h, vs 0.1% DMSO
Protocol: After isolating nuclear fractions, ZFP64 protein levels were detected by Western Blot analysis. Histone H3 serves as nuclear loading control.
4 h upon seeding, HepG2 cells were treated with either 0.1% DMSO or 5 μM resminostat.
24 h upon resminostat treatment, cells were washed once with PBS before scraping and harvesting in cold PBS and transferring the cells into pre-chilled 15 ml falcon tubes. […]
From each nuclear sample 4.4 μg protein (measured via BCA protein assay) were added to the same amount of Tricine buffer (supplemented with B-Mercaptoethanol), heated at 95° C. for 5 min and then placed on ice. […]
The next day, after washing four times with Washing Buffer, membranes were incubated for 1 h with the corresponding horseradish peroxidase-conjugated anti-rabbit IgG secondary antibody at a dilution of 1/50.000 and anti-Biotin at a dilution of 1/1.000 (diluted in 10 ml 1/10 diluted SuperBlock T20 Blocking Buffer). After washing four times with Washing Buffer, HRP signals were detected using enhanced chemoluminescence and exposed to X-ray films. Subsequently, the films were scanned using the Gel Doc 2000 and the corresponding signals were quantified with the “Quantity One” Software (BioRad).

CN(C)Cc1ccc(S(=O)(=O)n2ccc(/C=C/C(=O)NO)c2)cc1 [resminostat, (E)-3-(1-(4-((dimethylamino)methyl)phenylsulfonyl)-1H-pyrrol-3-yl)-N-hydroxyacrylamide]
ZFP64 expression in several cancer cell lines (FIG. 4c) (ZFP64): down-regulating effect | Histone H3 levels (nuclear loading control) (Histone H3): essentially unaltered
